Data as given in patent USRE48805E1, “Method for cancer targeting treatment and detection of arginine using albumin-binding arginine deiminase fusion protein” (Vision Global Holdings Ltd., priority 2013, dated 2021).

Tests used:
[1] = test system: Mia-paca-2 pancreatic cancer cell xenografts; test: In vivo efficacy on Mia-paca-2 pancreatic cancer cell xenografts; parameters: species or system Nude balb/c mice (human pancreatic cancer xenograft); conditions: 100 mg/kg once a week, intraperitoneal, end of the time course
Method: Nude balb/c mice (4-6 weeks) are used and they are allowed to acclimatize for a week before the treatment. Mice are inoculated subcutaneously with 2×10^6 cancer cells in 100 μl of 1:1 PBS:Matrigel. Matrigel is used to augment the growth of tumors. Two weeks later, the mice are randomly separated into four groups of 4 animals in each group. Mice are intraperitoneally administered with PBS (control), AAD (5 U; twice a week), Gemcitabine, Gem (100 mg/kg; once a week) or AAD+Gem (a combination of both AAD and Gem) in 200 μl PBS. Tumor size is measured by caliper and tumor volume is calculated using formula: (length×width^2)/2. Body weight is measured every week. After the mice are sacrificed by end of the time course, the tumors are excised and weighed. […] The difference in the tumor size between control and AAD fusion protein-treatment group is about 60% at Day 28.

[2] = test system: 22Rv1 prostate cancer cell xenografts; test: In vivo efficacy on 22Rv1 prostate cancer cell xenografts; parameters: species or system Nude balb/c mice (human prostate cancer xenograft); conditions: 10 mg/kg once a week, intraperitoneal
Method: Nude balb/c mice (4-6 weeks) are used and they are allowed to acclimatize for a week before the treatment. Mice are inoculated subcutaneously with 3×10^6 cancer cells in 100 μl PBS. Two weeks later, the mice are randomly separated into four groups of 5 animals in each group. Mice are intraperitoneally administered with PBS (control), AAD (5 U; twice a week), Docetaxel, DTX (10 mg/kg; once a week) or AAD+DTX (a combination of both AAD and DTX) in 200 ul PBS. Tumor size is measured by caliper and tumor volume is calculated using formula: (length×width^2)/2. Body weight is measured every week. After the mice are sacrificed by end of the time course, the tumors are excised and weighed.
The difference in the tumor size between control and AAD fusion protein- or DTX-treatment groups are about 55% and 54% at Day 22, respectively. Besides, the combination of AAD fusion protein and DTX-treatment group has a synergistic effect on tumor growth inhibition. Tumor growth of the combination treatment group is inhibited by about 94% when compared to that of the control group.

| Compound | tumor size compared to control [1] | difference in the tumor size between control and DTX-treatment group ([2]; Day 22) | tumor size compared to control ([2]; end of the time course) |
| --- | --- | --- | --- |
| Nc1ccn([C@@H]2O[C@H](CO)[C@@H](O)C2(F)F)c(=O)n1 [Gemcitabine] | significantly lower than that in control |  |  |
| CC(=O)O[C@@]12CO[C@@H]1C[C@H](O)[C@@]1(C)C(=O)[C@H](O)C3=C(C)[C@@H](OC(=O)[C@H](O)[C@@H](NC(=O)OC(C)(C)C)c4ccccc4)C[C@@](O)([C@@H](OC(=O)c4ccccc4)[C@H]21)C3(C)C [docetaxel] |  | ~54% | significantly lower than that in control |
